Laboratory results: US20220062299A1, “USE OF GLUCOCORTICOID STEROIDS IN PREVENTING AND TREATING CONDITIONS OF MUSCLE WASTING, AGING AND METABOLIC DISORDER” (NORTHWESTERN UNIVERSITY, priority 2018, published 2022)

Test system: mdx mice
Assay: Dosing of metabolic and endocrine biomarkers in serum and tissues, mdx mice, 4-week daily or weekly prednisone
Format: in vivo
Conditions: 4-week treatment, mean ± s.e.m
Protocol: Animal handling and steroid regimens. Mice were housed in a pathogen-free dedicated vivarium in accordance with Institutional Animal Care and Use Committee (IACUC) guidelines. Euthanasia was performed through carbon dioxide inhalation followed by cervical dislocation and heart removal. All methods using living animals in this study were performed in ethical accordance with the American Veterinary Medical Association (AVMA) and under protocols fully approved by both the Institutional Animal Care and Use Committee (IACUC) at Northwestern University Feinberg School of Medicine (protocol number ISO00000761). Consistent with the ethical approvals, all efforts were made to minimize suffering. Mice were fed ad libitum with Mouse Breeder Sterilizable Diet (#7904; Harlan Teklad, Indianapolis, Ind.) and maintained on a 12-hour light/dark cycle. mdx mice from the DBA/2J background were obtained from the Jackson Laboratory (Bar Harbor, Me.; stock #013141) and interbred. Male mice were used for reported experiments. Age at start was approximately 6 months for short-term experiments, approximately 6 weeks for long-term experiments. Dysferlin-null (Dysf-null) mice from the 129T2/SvEmsJ background were previously characterized (Demonbreun et al., 2011; Demonbreun et al., 2014). Age at start was approximately 9 months for long-term experiments. For experiments with Dysf-null and wildtype mice, both females and males (approximately 1:1 ratio) were randomized in treatment groups. […] Dosing was based on weekly weight measurements (1 mg/kg body weight, (Sali et al., 2012)) in 100 μl total PBS volume per dose. […] On injection days, stock solutions stored at −20° C. were diluted into sterile Eppendorf tubes containing sterile phosphate buffered saline (PBS) (#14190; Thermo Fisher, Waltham, Mass.). Puromycin (cat #A1113803, Thermo Scientific, Waltham, Mass.) was administered i.p. as 0.040 μmol/body g, and tissues were snap-frozen 30 minutes after injection. Sterile BD Micro-Fine IV Insulin Syringes (#14-829-1A; Fisher Scientific, Waltham, Mass.) were used to inject the intraperitoneal cavity of non-sedated animals. All animal analyses both during treatment and at endpoint were conducted blinded to treatment groups.
Dosing of metabolic and endocrine biomarkers. Glycogen was quantitated using the Glycogen Assay Kit (#ab65620; Abcam, Cambridge, Mass.) from approximately 25 mg frozen-pulverized whole tissue, following manufacturer's instructions and internal standards for calculating μg/mg values. For measurement of whole-tissue ATP/NAD^+ levels, approximately 25 mg frozen-pulverized tissue was extracted in 10% perchloric acid and neutralized in 0.75 M K2CO3, as previously described (Ramsey et al., 2009). NAD+ and ATP were measured by high-pressure liquid chromatography (HPLC) with Shimadzu LC-20A pump (Shimadzu Scientific Instr Inc, Addison, Ill.) and UV-VIS detector, using a Supelco LC-18-T column (15 cm×[…]; #58970-U; Millipore-Sigma, St Louis, Mo.). […] ATP and NAD^+ eluted as sharp peaks at 3 and 14 minutes, respectively, and were normalized to tissue weight of frozen liver tissue for calculating pmol/mg values. Corticosterone was measured in mouse serum and cortisol was measured in human serum using dedicated ELISA kits (#ADI-900-097, Enzo Life Science, Farmingdale, N.Y.; #K7430-100, BioVision, Milpitas, Calif.) according to manufacturer's instructions and internal standards to calculate ng/ml values. Insulin levels were quantitated in mouse and human serum with species-specific ELISA kits (#10-1247-01 (mouse-specific); #10-1113-01 (human-specific); Mercodia, Uppsala, Sweden), following manufacturer's instructions and internal standards to calculate ng/ml values. Free fatty acids were quantitated using Enzychrom Free Fatty Acid Assay kit (#EFFA-100; BioAssay Systems, Hayward, Calif.), following kit's instructions and standards to calculate μM (serum) and nmol/mg (tissue) values. […]

C[C@]12C=CC(=O)C=C1CC[C@@H]1[C@@H]2C(=O)C[C@@]2(C)[C@H]1CC[C@]2(O)C(=O)CO [prednisone, Prednisone]
serum insulin (daily prednisone 1 mg/kg i.p.): 3.09 ± 0.14 ng/mL
serum BCAA (daily prednisone): 657 ± 24.2 µM
serum corticosterone (daily prednisone): 127 ± 5.34 ng/mL
serum free fatty acids (daily prednisone): 546 ± 13.5 µM
serum β-hydroxybutyrate (daily prednisone): 476 ± 4.81 µM
tissue BCAA, diaphragm (daily prednisone): 64 ± 3.09 nmol/mg
tissue BCAA, heart (daily prednisone): 2.38 ± 0.09 nmol/mg
tissue BCAA, omental fat (daily prednisone): 28.2 ± 0.99 nmol/mg
tissue BCAA, quadriceps (daily prednisone): 118 ± 2.74 nmol/mg
tissue free fatty acids, diaphragm (daily prednisone): 2.07 ± 0.09 nmol/mg
tissue free fatty acids, heart (daily prednisone): 0.86 ± 0.03 nmol/mg
tissue free fatty acids, omental fat (daily prednisone): 6.01 ± 0.3 nmol/mg
tissue free fatty acids, quadriceps (daily prednisone): 4.11 ± 0.11 nmol/mg
tissue β-hydroxybutyrate, diaphragm (daily prednisone): 28.4 ± 0.93 nmol/mg
tissue β-hydroxybutyrate, heart (daily prednisone): 24.6 ± 0.88 nmol/mg
tissue β-hydroxybutyrate, omental fat (daily prednisone): 58.8 ± 2.29 nmol/mg
tissue β-hydroxybutyrate, quadriceps (daily prednisone): 31.8 ± 0.48 nmol/mg
serum insulin (weekly prednisone 1 mg/kg i.p.): 1.73 ± 0.07 ng/mL
serum BCAA (weekly prednisone): 457 ± 14.1 µM
serum corticosterone (weekly prednisone): 194 ± 5.05 ng/mL
serum free fatty acids (weekly prednisone): 386 ± 17.3 µM
serum β-hydroxybutyrate (weekly prednisone): 425 ± 4.92 µM
tissue BCAA, diaphragm (weekly prednisone): 43.8 ± 0.93 nmol/mg
tissue BCAA, heart (weekly prednisone): 1.65 ± 0.07 nmol/mg
tissue BCAA, omental fat (weekly prednisone): 18.1 ± 0.94 nmol/mg
tissue BCAA, quadriceps (weekly prednisone): 89.6 ± 3.06 nmol/mg
tissue free fatty acids, diaphragm (weekly prednisone): 1.11 ± 0.07 nmol/mg
tissue free fatty acids, heart (weekly prednisone): 0.44 ± 0.02 nmol/mg
tissue free fatty acids, omental fat (weekly prednisone): 4.35 ± 0.07 nmol/mg
tissue free fatty acids, quadriceps (weekly prednisone): 1.25 ± 0.07 nmol/mg
tissue β-hydroxybutyrate, diaphragm (weekly prednisone): 17.1 ± 0.77 nmol/mg
tissue β-hydroxybutyrate, heart (weekly prednisone): 16.5 ± 0.56 nmol/mg
tissue β-hydroxybutyrate, omental fat (weekly prednisone): 19 ± 0.39 nmol/mg
tissue β-hydroxybutyrate, quadriceps (weekly prednisone): 16.4 ± 1.48 nmol/mg
